# Laboratory results as given in patent US11932870B2, “Compositions and methods for immune cell modulation in adoptive immunotherapies” (Fate Therapeutics, Inc., priority 2016, dated 2024).
# How the values were obtained:
# [1] = test system: CD8 T cells transduced with CAR Construct 1; assay: Tcm phenotype skewing of CAR-T cells (CD62L, CCR7, CD27 surface expression); type: cell-based, human; conditions: flow cytometry day 8
# Description: (§1) Culturing cells in large-scale for phenotypic and exhaustion marker evaluation. Isolated CD8 T cells were activated in bulk on day 0 using anti-CD3/anti-CD28 beads in T cell media supplemented with IL-2. On day 1, cells were transduced with the CAR Construct and cell density was adjusted to 0.5×10^6/ml and 10^6 cells were seeded into 12-well plates in the presence of vehicle, TWS119, or DCC-2036. On day 4, cells were transferred into 6-well plates and 2 ml of T cell media was added to each well. On day 6 another 2 ml of media was added to each well. On day 8, CAR T cells were analyzed on a flow cytometer for surface expression of phenotypic markers (CD62L, CCR7, and CD27) and exhaustion markers (PD-1 and Tim-3).
# To determine the effect of compound treatment on skewing towards a central memory phenotype, isolated CD8 T cells were activated in bulk on day 0 using anti-CD3/anti-CD28 beads in T cell media supplemented with IL-2. On day 1, cells were transduced with the CAR Construct 1 shown in FIG. 2 and cell density was adjusted to 0.5×10^6/ml and 10^6 cells were seeded into 12 well plates in the presence of vehicle (DMSO), TWS119 or DCC-2036 at the same concentrations. On day 4, cells were transferred into 6-well plates and 2 ml of media was added to each well. On day 6 another 2 ml of media was added to each well. On day 8, cells were analyzed on a flow cytometer for cell surface expression of CD27.
# The expression of CD27 observed with vehicle treatment was defined as an MFI (mean fluorescence intensity) of 1 and the relative MFI of cells treated with compound was calculated.
# CD8 CAR-T cells = assay: Exhaustion marker expression (PD-1, Tim-3) on CD8 CAR-T cells; type: cell-based, human
# Description: as §1
# To determine the effect of compound treatment of CAR-T cells on exhaustion marker expression, cells from three different donors were prepared and treated as described in the protocol above. PD-1 and Tim-3 expression was determined using flow cytometry. […] Tim-3 expression was reduced 2-fold with TWS119, and 3.7-fold with DCC-2036 treatment (FIG. 6A).
# [2] = test system: CAR-T cells co-cultured with irradiated K562 tumor cells that express CD19; assay: In vitro serial killing/re-stimulation assay; type: cell-based, human; conditions: relative to vehicle; FIG. 3C
# Description: An informative clinical parameter that can in some contexts be indicative of likelihood of successful adoptive cell therapy in clinical trials is the ability and extent of expansion of the transferred cells in the patient post-treatment and/or persistence and continued function following initial expansion, e.g., in the context of continued exposure to antigen. The ability of engineered T cells to persist and continue expanding over multiple rounds of antigen stimulation can be indicative of such features and/or likelihood of in vivo function or clinical response. An in vitro serial killing/re-stimulation assay, where the T cells treated by each compound were evaluated for various functions, including expansion and ability to kill tumor cells expressing the target antigen in vitro over multiple rounds of exposure to and withdrawal from antigen, was used as a model system. Such assays were carried out on cells treated with or without compounds, to assess the impact of individual compounds on cell function after repeated encounter with antigen, and cell expansion or persistence in such contexts.
# CD8 T cells were activated, transduced, and expanded in the presence of DMSO, TWS119, or DCC-2036. At the end of the expansion, the CAR-T cells were cryopreserved. The serial re-stimulation assay was performed by thawing the CAR-T cells and co-culturing with irradiated K562 tumor cells that express CD19, the antigen recognized by the CAR. Prior to starting each round of killing, cell numbers were adjusted so that CAR-T cell numbers were substantially the same from the cultures generated with DMSO, TWS119, and DCC-2036 treatment respectively. An equal number of irradiated CD19-expressing K562 target cells were added to the different CAR-T cultures.
# Nalm-6-luc tumor cells = assay: In vivo tumor clearance by compound-treated CD19 CAR-T cells; conditions: NSG mice with Nalm-6-luc; 2.0×10^5 cryopreserved compound-treated CAR-T cells per animal (1:1 CD4:CD8); imaging; FIGS. 7 and 8
# Description: NSG mice were injected with Nalm-6-luc, a CD19+ human tumor line engineered to express firefly luciferase. CAR-T cells were generated from CD4+ and CD8+ T cells that were separately activated and expanded in vitro. The cells were transduced with the CAR-2 construct (FIG. 2) one day after activation and then replated into 24-well GREX plates with or without the compounds. Half the media was replaced every two days thereafter until harvest one week post-activation. Cells were cryopreserved and then thawed for use. NSG mice were infused with tumor cells followed […] by CAR-T transfer via retroorbital injection. Four days after IV. injection with Nalm-6-luc cells, mice were treated with 2.0×10^5 CAR-T cells per animal (1:1 CD4:CD8). The mice were imaged periodically to determine tumor burden.
smiles,measurement,setting,value
Nc1cccc(-c2cc3c(Oc4cccc(O)c4)ncnc3[nH]2)c1 [TWS119],increase in the frequency of CAR-T cells expressing both CD62L and CCR7,"[1]; relative to vehicle (DMSO), FIG. 4A",1.7 fold
same,increase in the expression of the differentiation marker CD27 (relative MFI),"[1]; relative to vehicle (MFI defined as 1), FIG. 4B",did not have an effect
same,expression of T cell exhaustion marker Tim-3,"CD8 CAR-T cells; CD8 T cells at one week post activation, relative to DMSO, FIG. 6A",reduced expression
same,expression of T cell exhaustion marker PD-1,"CD8 CAR-T cells; CD8 T cells at one week post activation, relative to DMSO, FIG. 6B",reduced expression
same,reduction of Tim-3 expression,"CD8 CAR-T cells; relative to vehicle, three donors, FIG. 6A",2 fold
same,decrease in PD-1 surface expression,"CD8 CAR-T cells; relative to vehicle, three donors, FIG. 6B",3.3 fold
same,cell number expansion of CAR-T cells in rounds 3 and 4 of the serial re-stimulation assay,[2],modest increase in expansion relative to vehicle
same,tumor burden / tumor control,Nalm-6-luc tumor cells,minimal tumor control
